Patent US7109235B2, “Microtubule stabilizing compounds” (The Board of Trustees of the University Illinois, priority 2002, dated 2006)
pIC50: −log10 of the molar value. Converted amounts (≈) assume the structure as drawn. Like-named read-outs stand apart in the source and are kept apart here.

What was measured:
[1] = system: MCF-7 breast cancer cells; assay: cytotoxicity assay on MCF-7 breast cancer cells; assay type: cell-based, human
Procedure: The cytotoxic activity of trans-desoxylaulimalide (12a) was evaluated. An initial cytotoxicity study with desoxylaulimalide (12a) was conducted to compare compound (12a) to taxol and laulimalide for effects on the growth of human MCF-7 breast cancer cells. Cytotoxicity assays on MCF-7 were performed as described in P. Giannakakou et al., J. Biol. Chem., 272, 17118–17125 (1997). Consistent with its activity in a tubulin assembly assay, desoxylaulimalide (12a) was an inhibitor of cell growth. […] Thus, desoxylaulimalide (12a) is about 1/50 as active as laulimalide in the MCF-7 cells. This compares with the 340-fold lower activity in MDA-MB-435 breast cancer cells observed for isolaulimalide (9), which also lacks the epoxide moiety.

tubulin = tubulin assembly assay / microtubule stabilization; assay type: biochemical
[2] = system: MDA-MB-435 breast cancer cells; details: cited from earlier work
KB cell line = details: cited from earlier work
[3] = system: SKVLB-1 multidrug resistant cell line; details: multidrug resistant cell line SKVLB-1; read-out: IC50 against SKVLB-1; cited from earlier work
[4] = system: MDA-MB-435 and SK-OV-3 cell lines; details: drug-sensitive cell lines MDA-MB-435 and SK-OV-3; read-out: IC50, inhibition of cell proliferation; cited from earlier work
[5] = system: P388, A549, HT29, and MEL28 cell lines; details: range over four cell lines; cited from earlier work
[6] = system: P-glycoprotein-mediated MDR cell lines; details: cited from earlier work
[7] = Homo sapiens, MCF7, read-out: IC50, inhibition of cell growth

C=C1C[C@H](C)C[C@@H]2CC=C[C@@H](C/C=C\C(=O)O[C@H]([C@@H](O)/C=C/[C@@H]3CC(C)=CCO3)C/C=C/[C@@H](O)C1)O2 [12a, desoxylaulimalide]
pIC50 [1, 7]: 6.44 | activity relative to laulimalide ([1]; MCF-7 cells): about 1/50 | effect on the tubulin assembly reaction (tubulin): stimulates the tubulin assembly reaction | potency with respect to microtubule stabilization (tubulin; compared with laulimalide (2)): potency similar to laulimalide (2)

C=C1CC(C)C[C@@H]2CC=C[C@@H](C/C=C\C(=O)O[C@@H]3C[C@H](O[C@@H]3/C=C/[C@H]3CC(C)=CCO3)[C@H](O)C(O)C1)O2 (stereo partly drawn) [isolaulimalide]
fold lower activity (compared with laulimalide) [2]: 340 fold | pIC50 (KB cell line; read-out: IC50 against KB cell line): < 6.70 | pIC50 [3]: 5.59

C=C1C[C@H](C)C[C@@H]2CC=C[C@@H](C/C=C\C(=O)O[C@H]([C@@H](O)/C=C/[C@@H]3CC(C)=CCO3)C[C@@H]3O[C@H]3[C@@H](O)C1)O2 [laulimalide]
IC50, cytotoxicity against KB cell line (KB cell line): 15 ng/mL (≈ 0.0291 µM) | pIC50 [1, 7]: 8.15 | pIC50 [4]: 7.92 to 8.30 | pIC50 [3]: 5.92 | IC50, cytotoxicity against P388, A549, HT29, and MEL28 cell lines [5]: 10 to 50 ng/mL | fold more potent than taxol [6]: 100 fold

CC(=O)O[C@H]1C(=O)[C@@]2(C)[C@H]([C@H](OC(=O)c3ccccc3)[C@]3(O)C[C@H](OC(=O)[C@H](O)[C@@H](NC(=O)c4ccccc4)c4ccccc4)C(C)=C1C3(C)C)[C@]1(OC(C)=O)CO[C@@H]1C[C@@H]2O [taxol]
pIC50 ([1]; MCF7, human MCF-7 breast cancer cells, read-out: IC50, inhibition of cell growth): 8.62 | pIC50 [4]: 5.70 to 6.00
